Laboratory results published in patent US20240016774A1, “IMPLANTABLE DEPOTS FOR LOCALIZED, SUSTAINED, CONTROLLED RELEASE OF THERAPEUTIC AGENTS TO TREAT CANCER AND RELATED CONDITIONS” (Foundry Therapeutics, Inc., priority 2020, published 2024).

Test: in vitro drug release (elution) in PBS at 37° C.
Type: physicochemical
Settings: docetaxel powder, milled vs unmilled
Method: Using docetaxel as the example drug, and 10:10:80 PEG10K:PLGA5050:Doce as the baseline formulation for comparison, we show below various novel formulations that can increase in vitro drug elution rates as tested in PBS at 37° C. 10:10:80 PEG10K:PLGA5050:Doce was the formulation that was evaluated in our preclinical studies. Average cumulative drug release % values with linear trend line from the first 14 days were plotted, as shown in FIG. 114. • Baseline=PEG:PLGA:Doce 10:10:80 Rod • Fast=PEG:PLGA:Doce 50:10:40 Rod • Faster=PEG:Doce 60:40 Rod • Raw docetaxel powder, milled or unmilled • Fastest=PEG:Doce 1:1 Particles
The mechanism of how each of these novel formulations can achieve increased in vitro drug release rate compared to the baseline 10:10:80 PEG10K:PLGA5050:Doce formulation is explained below. We have developed multiple formulations with tunable drug release rates that takes advantage of either decreasing hydrophobicity (by increasing PEG content) or introducing predominantly molecularly dispersed drug into the polymer matrix.

Compound: CC(=O)O[C@@]12CO[C@@H]1C[C@H](O)[C@@]1(C)C(=O)[C@H](O)C3=C(C)[C@@H](OC(=O)[C@H](O)[C@@H](NC(=O)OC(C)(C)C)c4ccccc4)C[C@@](O)([C@@H](OC(=O)c4ccccc4)[C@H]21)C3(C)C [docetaxel]
- dissolution rate after milling: does not significantly increase dissolution rate even after milling
